This note sets out measurements from US5869492A, “Condensed thiazole derivatives, having 5-HT receptor affinity” (priority 1995, dated 1999).

Structures are written as SMILES. Structures can show the parent of a compound that is named as a salt. Where two headings read alike, the source gives them in different places.

The target of assay [1] is T1, noradrenaline reuptake sites (Rattus norvegicus, UniProt Q63380).
T1 construct: Frontal cortical tissue from the brains of male Sprague-Dawley rats; from tissue; host or cells: crude frontal cortical synaptosomes of male Sprague-Dawley rats (Charles River)
Briefly: [3H]noradrenaline uptake into rat frontal cortical synaptosomes. The conditions noted are these: [3H]noradrenaline 10 nM, mean of three determinations unless marked (** one), read-out: NA uptake Ki. The assay is classed as biochemical.
Experimental: Frontal cortical tissue from the brains of male Sprague-Dawley rats (Charles River; weight range 150-250 g) was homogenised in ice-cold 0.32M sucrose (1:10 w/v) using a motor driven teflon pestle (difference in diameter between mortar and pestle 0.5 mm). Nuclei and cell debris were removed by centrifugation at 1,500 g at 4° C. for 10 minutes. The pellet (P1) was discarded and the supernatant centrifuged at 30,000 g at 4° C. for 10 minutes. The crude synaptosomal pellet (P2) was resuspended in Krebs-Physiological buffer (equivalent to 16.7 mg wet weight of tissue/ml).
Crude synaptosomes were incubated in a shaking water bath at 37° C. for 15 minutes. Aliquots (150 μl; equivalent to 2.5 mg wet weight of tissue/tube) were then added to tubes containing 275 μl of Krebs-Physiological buffer and 50 μl of Krebs-Physiological buffer (total uptake) or 50 μl of test compound (at a single concentration of 10^-6 M or 10 concentrations ranging from 10^-11 -10^-3 M) or 50 μl of desipramine (10^-5 M; non-specific uptake). Uptake was initiated by the addition of 25 μl of freshly prepared [^3 H]noradrenaline (10 nM), followed by vortexing and was continued for 5 minutes at 37° C. in the shaking water bath. Uptake was terminated by filtration under vacuum through Whatman GF/B filters using a Brandell cell harvester. Filters were then washed with 8 ml ice-cold saline. The scored filter paper discs were placed into vials, scintillation fluid added and radioactivity determined by liquid scintillation counting.

Assay [2] deals with T2, 5-HT1A receptors (Rattus norvegicus, UniProt P19327).
T2 construct: Hippocampal tissue from the brains of male Sprague-Dawley rats; from tissue; host or cells: hippocampal membranes of male Sprague-Dawley rats (Charles River)
T2 sequence (P19327 1-422): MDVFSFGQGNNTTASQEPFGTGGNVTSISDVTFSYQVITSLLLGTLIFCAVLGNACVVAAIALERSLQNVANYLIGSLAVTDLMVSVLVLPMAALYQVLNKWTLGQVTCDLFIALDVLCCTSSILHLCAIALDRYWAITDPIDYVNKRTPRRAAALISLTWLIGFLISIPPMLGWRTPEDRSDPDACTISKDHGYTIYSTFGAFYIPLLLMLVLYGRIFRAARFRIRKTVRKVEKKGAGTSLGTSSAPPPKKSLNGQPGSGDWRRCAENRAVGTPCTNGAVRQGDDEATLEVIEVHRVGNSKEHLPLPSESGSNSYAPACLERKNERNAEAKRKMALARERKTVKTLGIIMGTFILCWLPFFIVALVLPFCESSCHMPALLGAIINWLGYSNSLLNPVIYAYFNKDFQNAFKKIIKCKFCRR
Briefly: [3H]8-OH-DPAT binding to 5-HT1A receptors in rat hippocampal membranes. The conditions noted are these: for Ki: [3H]8-OH-DPAT 2 nM, rat hippocampal membranes, mean of three determinations unless marked.
Experimental: Hippocampal tissue from the brains of male Sprague-Dawley rats (Charles River; weight range 150-250 g) was homogenised in ice-cold 50 mM Tris-HCl buffer (pH 7.7 when measured at 25° C., 1:40 w/v) and centrifuged at 30,000 g at 4° C. for 10 minutes. The pellet was rehomogenised in the same buffer, incubated at 37° C. for 10 minutes and centrifuged at 30,000 g at 4° C. for 10 minutes. The final pellet was resuspended in 50 mM Tris-HCI buffer (pH 7.7) containing 4 mM CaCl2, 0.1% L-ascorbic acid and 10 μM pargyline hydrochloride (equivalent to 6.25 mg wet weight of tissue/ml) and used immediately in the binding assay.
Aliquots (400 μl; equivalent to 2.5 mg wet weight of tissue/tube) of this membrane preparation were added to tubes containing [^3 H]8-hydroxy-2-(dipropylamino)tetralin ([^3 H]8-OH-DPAT; 50 μl; 2 nM) and distilled water (50 μl; total binding) or 5-HT (50 μl; 10 μM; non-specific binding) or test compound (50 μl; at a single concentration of 10^-6 M or at 10 concentrations ranging from 10^-11 -10^-3 M) and incubated at 25° C. for 30 minutes. The incubation was terminated by rapid filtration under vacuum through Skatron 11734 filters using a Skatron Cell Harvester. Filters were washed with ice-cold 50 mM Tris-HCl buffer, pH 7.7 (at 25° C., wash setting 9,9,0) and dried. The scored filter paper discs were punched out into vials, scintillation fluid added and radioactivity determined by liquid scintillation counting.
The percentage displacement of specific binding of the tritiated ligand was calculated for the single concentration (10^-6 M) of test compound. Displacement curves were then produced for those compounds which displaced ≥50% of specific binding of the tritiated ligand at 10^-6 M using a range of concentrations of the compound. The concentration which gave 50% inhibition of specific binding (IC50) was obtained from the curve. The inhibition coefficient Ki was then calculated using the formula [formula] in which [ligand] is the concentration of the tritiated ligand used and KD is the equilibrium dissociation constant for the ligand.

In assay [3] the target is T3, 5-hydroxytryptamine (5-HT) reuptake sites (Rattus norvegicus, UniProt P31652).
T3 construct: Frontal cortical tissue from the brains of male Sprague-Dawley rats; from tissue; host or cells: crude frontal cortical synaptosomes of male Sprague-Dawley rats (Charles River)
Briefly: [3H]5-HT uptake into rat frontal cortical synaptosomes. The assay is classed as biochemical. How it is done:
Frontal cortical tissue from the brains of male Sprague-Dawley rats (Charles River; weight range 150-250 g) was homogenised in ice-cold 0.32M sucrose (1:10 w/v) using a motor driven teflon pestle (difference in diameter between mortar and pestle 0.5 mm). Nuclei and cell debris were removed by centrifugation at 1,500 g at 4° C. for 10 minutes. The pellet (P1) was discarded and the supernatant centrifuged at 30,000 g at 4° C. for 10 minutes. The crude synaptosomal pellet (P2) was resuspended in Krebs-Henseleit buffer (equivalent to 8.3 mg wet weight of tissue/ml).
Crude synaptosomes were incubated in a shaking water bath at 37° C. for 15 minutes. Aliquots (150 μl; equivalent to 1.25 mg wet weight of tissue/tube) were then added to tubes containing 275 μl of Krebs-Henseleit buffer and 50 μl of Krebs-Henseleit buffer (total uptake) or 50 μl of test compound (at a single concentration of 10^-6 M or at 10 concentrations ranging from 10^-11 -10^-3 M) or 50 μl of zimeldine (10^-5 M; non-specific uptake). Uptake was initiated by the addition of 25 μl of freshly prepared [^3 H]5-HT (2 nM), followed by vortexing, and was continued for 5 minutes at 37° C. in the shaking water bath. Uptake was terminated by filtration under vacuum through Skatron 11734 filters using a Skatron cell harvester. Filters were then washed with 8 ml ice-cold saline. The scored filter paper discs were punched into vials, scintillation fluid added and radioactivity determined by liquid scintillation counting.
For both the 5-HT uptake and noradrenaline uptake tests, the percentage inhibition of specific uptake of the tritiated ligand was calculated for the single concentration (10^-6 M) of test compound. Inhibition curves were then produced for those compounds which inhibited ≥50% of specific uptake of the tritiated ligand at 10 ^-6 M using a range of concentrations of test compound. The concentration which gave 50% inhibition of specific uptake (IC50) was obtained from the curve. The inhibition constant (Ki) was then calculated using the formula [formula] in which [ligand] is the concentration of tritiated ligand used and Km is the affinity of the uptake site for the ligand.

Where [4] appears, read: [3H]5-HT 2 nM, rat frontal cortical synaptosomes, mean of three determinations unless marked (* two), read-out: 5-HT uptake Ki.

T3 sequence (P31652 whole entry): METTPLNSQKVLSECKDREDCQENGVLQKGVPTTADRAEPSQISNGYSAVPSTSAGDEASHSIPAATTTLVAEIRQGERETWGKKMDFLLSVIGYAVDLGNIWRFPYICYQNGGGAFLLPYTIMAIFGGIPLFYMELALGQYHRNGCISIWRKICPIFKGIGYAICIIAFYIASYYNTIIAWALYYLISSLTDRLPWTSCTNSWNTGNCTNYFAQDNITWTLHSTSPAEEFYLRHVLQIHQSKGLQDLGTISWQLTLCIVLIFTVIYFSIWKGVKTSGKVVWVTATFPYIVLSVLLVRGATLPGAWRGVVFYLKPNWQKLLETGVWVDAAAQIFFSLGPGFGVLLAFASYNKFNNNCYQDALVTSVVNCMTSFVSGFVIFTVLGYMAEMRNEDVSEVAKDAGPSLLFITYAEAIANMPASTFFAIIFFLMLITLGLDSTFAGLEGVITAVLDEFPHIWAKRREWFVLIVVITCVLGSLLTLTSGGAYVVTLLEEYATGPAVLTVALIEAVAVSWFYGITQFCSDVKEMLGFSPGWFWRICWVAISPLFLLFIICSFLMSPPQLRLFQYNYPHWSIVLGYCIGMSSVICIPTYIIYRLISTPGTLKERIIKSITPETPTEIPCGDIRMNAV
T1 sequence (Q63380 1-617): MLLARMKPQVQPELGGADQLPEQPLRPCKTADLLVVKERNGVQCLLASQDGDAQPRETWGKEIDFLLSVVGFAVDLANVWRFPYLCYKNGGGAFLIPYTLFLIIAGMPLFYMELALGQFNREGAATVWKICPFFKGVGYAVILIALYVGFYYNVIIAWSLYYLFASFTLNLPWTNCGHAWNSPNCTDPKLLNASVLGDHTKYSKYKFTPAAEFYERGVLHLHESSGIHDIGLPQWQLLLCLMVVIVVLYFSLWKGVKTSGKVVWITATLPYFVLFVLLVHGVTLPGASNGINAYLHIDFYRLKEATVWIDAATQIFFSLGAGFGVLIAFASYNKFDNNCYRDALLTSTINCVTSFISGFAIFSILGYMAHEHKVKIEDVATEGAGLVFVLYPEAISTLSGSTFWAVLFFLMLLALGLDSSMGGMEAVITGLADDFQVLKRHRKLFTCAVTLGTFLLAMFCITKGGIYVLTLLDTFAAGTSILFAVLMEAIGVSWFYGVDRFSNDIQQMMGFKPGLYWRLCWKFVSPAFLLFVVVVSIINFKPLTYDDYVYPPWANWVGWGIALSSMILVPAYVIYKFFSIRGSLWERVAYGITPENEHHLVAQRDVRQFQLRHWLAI

What is called Ki is a dissociation constant, usually derived from enzyme kinetics or from competition with a known ligand. For the compound `C1=C(c2csc3ccccc23)N2CCN=C2S1` [Example 1, 3-(benzo[b]thiophen-3-yl)-5,6-dihydroimidazo[2,1-b]thiazole monohydrobromide dihydrate], the Ki was 2.8 nM in assay [1], 81 nM in assay [2] and 12.7 nM in assay [3].
With `C1=C(c2csc3ccccc23)N2CCCN=C2S1` [Example 2, 3-(benzo[b]thiophen-3-yl)-6,7-dihydro-5H-thiazolo[3,2-2a]pyrimidine], the Ki in assay [1] amounted to 40 nM; in assay [2], 340 nM; in assay [3] (setting [4]) it was 305 nM.
With `C1=C(c2coc3ccccc23)N2CCN=C2S1` [Example 3, 3-(benzo[b]furan-3-yl)-5,6-dihydroimidazo[2,1-b]thiazole monohydrobromide monohydrate], the Ki stood at 41 nM in assay [1], 118 nM in assay [2] and 84 nM in assay [3].
With `C1=C(c2coc3ccccc23)N2CCCN=C2S1` [Example 4, 3-(benzo[b]furan-3-yl)-6,7-dihydro-5H-thiazolo[3,2-a]pyrimidine], the figures for the Ki in assay [1], in assay [2] and in assay [3] (setting [4]) were 116 nM, 321 nM and 881 nM, respectively.
As to `Clc1ccc2scc(C3=CSC4=NCCN34)c2c1` [Example 5, 3-(5-chlorobenzo[b]thiophen-3-yl)-5,6-dihydroimidazo[2,1-b]thiazole monohydrobromide], the Ki came out at 13 nM in assay [1], 40.7 nM in assay [2] and 8.7 nM in assay [3].
The like results for `COc1ccc2scc(C3=CSC4=NCCN34)c2c1` [Example 6, 3-(5-methoxybenzo[b]thiophen-3-yl)-5,6-dihydroimidazo[2,1-b]thiazole monohydrobromide] were, in that order, 51 nM, 37.5 nM and 22 nM.
`Fc1ccc2scc(C3=CSC4=NCCN34)c2c1` [Example 7, 3-(5-fluorobenzo[b]thiophen-3-yl)-5,6-dihydroimidazo[2,1-b]thiazole monohydrobromide]: the Ki in assay [1] stood at 5.4 nM; in assay [3] it was 36 nM. The inhibition at 1 µM in assay [2] (single concentration 10^-6 M, [3H]8-OH-DPAT, * mean of two determinations, read-out: 5-HT1A % displacement at 10^-6 M) was 66%.
`N#Cc1ccc2scc(C3=CSC4=NCCN34)c2c1` [Example 8, 3-(5,6-dihydroimidazo[2,1-b]thiazol-3-yl)benzo[b]thiophen-5-carbonitrile monohydrobromide]: the Ki in assay [2] turned out to be 467 nM; in assay [3] it was 530 nM.
